55 compounds from patent US6620828B2, “Thiazole compounds and pharmaceutical compositions for inhibiting protein kinases and methods for their use” (Agouron Pharmaceuticals, Inc., priority 1999, dated 2003) can be followed below.

Read-outs that look alike come from different tables or passages of the source.

In the assay the test system is human umbilical vein endothelial cells (HUVEC). Kind of assay: HUVEC proliferation assay. It counts as cell-based. To be noted: for inhibition at 0.15 µM / inhibition at 0.001 µM / inhibition at 0.01 µM / inhibition at 0.05 µM: Homo sapiens, HUVEC; for inhibition at 0.15 µM / % inhibition @ 150 nM: Table I screening results, 150 nM; for inhibition at 0.001 µM: 1 nM; for inhibition at 0.01 µM: 10 nM; for inhibition at 0.05 µM: 50 nM. In a few lines: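 Readout was MTT dye reduction (A595) after 72 h of stimulation with VEGF at 6 ng/ml final. Compound, in 0.1% DMSO final, was added 1 h before VEGF to HUVEC starved 24 h in 1% FBS. % inhibition was scaled between VEGF-alone and unstimulated wells; IC50 was fitted from triplicate dose curves.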

Where [1] appears, read: crude combinatorial amide library.
Where [2] appears, read: Table II screening results, crude combinatorial amide library.
Setting [3] is: Table II screening results, crude combinatorial amide library, read-out: % inhibition @ 10 nM.
The mark [4] stands for this setting: Inhibition of HUVEC Proliferation, crude combinatorial urea library, read-out: Inhibition @ 50 nM.
[5] abbreviates: Inhibition of HUVEC Proliferation, crude combinatorial urea library, read-out: % inhibition @ 50 nM.
Setting [6] is: table following Table II (untitled), crude combinatorial library.
Where [7] appears, read: table following Table II (untitled), crude combinatorial library, read-out: % inhibition @ 10 nM.
Where [8] appears, read: crude combinatorial urea library, read-out: Inhibition of HUVEC Proliferation % inhibition @ 10 nM.
[9] abbreviates: crude combinatorial urea library, read-out: Inhibition of HUVEC Proliferation % inhibition @ 50 nM.

As to `COc1cc(Nc2nc(N)c(-c3nc(-c4cccc(NC(=O)c5ccc6[nH]ccc6c5)c4)cs3)s2)cc(OC)c1OC`, under setting [1], the inhibition at 0.15 µM stood at 15%. `CNC(=O)Nc1nc(N)c(-c2nc(-c3cccc(NC(=O)Cc4cccnc4)c3)cs2)s1`: the inhibition at 0.001 µM under setting [2] was -7%. Also, the inhibition at 0.01 µM under setting [3] was -27%. In the case of `COc1cc(Nc2nc(N)c(-c3nc(-c4cccc(NC(=O)C5CCCC5)c4)cs3)s2)cc(OC)c1OC`, the inhibition at 0.15 µM under setting [1] is 12%.

Consider `COc1cccc(C(=O)Nc2cc(-c3noc(-c4sc(NC(=O)N[C@H]5CC[C@H](O)CC5)nc4N)n3)c(F)cc2F)c1` [drawing 770], for which the inhibition at 0.05 µM under setting [4] was determined as 92%.

On to `COc1cccc(C(=O)Nc2cc(-c3csc(-c4sc(NC(=O)NCC(C)(C)C)nc4N)n3)c(F)cc2F)c1`, for which, under setting [5], the inhibition at 0.05 µM amounted to 43%. As to `CCNc1ccccc1C(=O)Nc1ccc(C)c(-c2noc(-c3sc(Nc4cc(OC)c(OC)c(OC)c4)nc3N)n2)c1`, the inhibition at 0.001 µM under setting [6] is -21%. The inhibition at 0.01 µM under setting [7] turned out to be 18%.

As for `COc1cccc(C(=O)Nc2cc(-c3noc(-c4sc(NC(=O)NCCc5cccnc5)nc4N)n3)c(F)cc2F)c1`, the inhibition at 0.05 µM under setting [4] stood at 38%. Take `COc1cc(Nc2nc(N)c(-c3nc(-c4cccc(NC(=O)Cc5ccccc5C)c4)cs3)s2)cc(OC)c1OC`: under setting [1], the “% inhibition @ 150 nM” value was found to be 0%. Turning to `COc1cccc(C(=O)Nc2cc(-c3noc(-c4sc(NC(=O)NCCS(=O)(=O)O)nc4N)n3)c(F)cc2F)c1`, under setting [4], the inhibition at 0.05 µM is 88%. In the case of `CCn1nc(C)cc1C(=O)Nc1ccc(C)c(-c2noc(-c3sc(Nc4cc(OC)c(OC)c(OC)c4)nc3N)n2)c1`, the inhibition at 0.001 µM under setting [6] is -4%. Besides, under setting [7], the inhibition at 0.01 µM came out at 44%.

As for `COc1cccc(C(=O)Nc2cccc(-c3csc(-c4sc(NC(=O)NCCCN(C)C)nc4N)n3)c2)c1`, under setting [8], the inhibition at 0.01 µM was -8%. Under setting [9], the inhibition at 0.05 µM turned out to be 15%. Take `COc1cc(Nc2nc(N)c(-c3nc(-c4cc(NC(=O)C(C)OC=C(C)C)ccc4C)no3)s2)cc(OC)c1OC` (stereo not shown): the inhibition at 0.001 µM under setting [6] is -21%. Further, the inhibition at 0.01 µM under setting [7] worked out at 11%. Regarding `COc1cc(Nc2nc(N)c(-c3nc(-c4cccc(NC(=O)c5nn(-c6ccccc6)nc5C)c4)cs3)s2)cc(OC)c1OC`, the inhibition at 0.15 µM under setting [1] was found to be 0%. With `COc1cccc(C(=O)Nc2cccc(-c3csc(-c4sc(NC(=O)NCCCN5CCCCC5)nc4N)n3)c2)c1`, the inhibition at 0.01 µM under setting [8] is 15%. The inhibition at 0.05 µM under setting [9] was determined as 49%. On to `COc1cccc(C(=O)Nc2cc(-c3csc(-c4sc(NC(=O)NCCC(N)=O)nc4N)n3)c(F)cc2F)c1`, for which, under setting [5], the inhibition at 0.05 µM is 48%. With `COc1cccc(C(=O)Nc2cccc(-c3csc(-c4sc(NC(=O)NCCc5c[nH]cn5)nc4N)n3)c2)c1`, under setting [8], the inhibition at 0.01 µM was determined as 1%. Also, the inhibition at 0.05 µM under setting [9] is -43%. For `COc1cccc(C(=O)Nc2cccc(-c3csc(-c4sc(NC(=O)NCC(C)(C)C)nc4N)n3)c2)c1` the same measures were 44% and 34%. Consider `COc1cc(Nc2nc(N)c(-c3nc(-c4cccc(NC(=O)c5cc6cccc(OC)c6o5)c4)cs3)s2)cc(OC)c1OC`, for which the inhibition at 0.15 µM under setting [1] was 21%. For `CNC(=O)Nc1nc(N)c(-c2nc(-c3cccc(NC(=O)c4cc(=O)[nH]c(=O)[nH]4)c3)cs2)s1`, under setting [2], the inhibition at 0.001 µM is -5%. Also, under setting [3], the inhibition at 0.01 µM is -14%. Regarding `COc1ccccc1CC(=O)Nc1cccc(-c2csc(-c3sc(Nc4cc(OC)c(OC)c(OC)c4)nc3N)n2)c1`, under setting [1], the inhibition at 0.15 µM came out at 58%. `COc1cc(Nc2nc(N)c(-c3nc(-c4cccc(NC(=O)c5ccc(C)cc5)c4)cs3)s2)cc(OC)c1OC`: under setting [1], the inhibition at 0.15 µM was 66%. For the compound `C=CCC(=O)Nc1cccc(-c2csc(-c3sc(NC(=O)NC)nc3N)n2)c1`, under setting [2], the inhibition at 0.001 µM is 8%. The inhibition at 0.01 µM under setting [3] is -13%. For `COc1cc(Nc2nc(N)c(-c3nc(-c4cccc(NC(=O)CCCc5ccccc5)c4)cs3)s2)cc(OC)c1OC`, the inhibition at 0.15 µM under setting [1] was 15%. As to `COc1cccc(C(=O)Nc2cc(-c3csc(-c4sc(NC(=O)NCCCN5CCOCC5)nc4N)n3)c(F)cc2F)c1`, the inhibition at 0.05 µM under setting [5] stood at 81%. Regarding `COCC(C)NC(=O)Nc1nc(N)c(-c2nc(-c3cc(NC(=O)c4cccc(OC)c4)c(F)cc3F)no2)s1` (stereo not shown), the inhibition at 0.05 µM under setting [4] came out at 80%. Take `COc1cc(Nc2nc(N)c(-c3nc(-c4cccc(NC(=O)c5ccoc5)c4)cs3)s2)cc(OC)c1OC`: under setting [1], the inhibition at 0.15 µM is 7%. On to `COc1cccc(C(=O)Nc2cc(-c3csc(-c4sc(NC(=O)NCCC5CCCN5C)nc4N)n3)c(F)cc2F)c1` (stereo not shown), for which, under setting [5], the inhibition at 0.05 µM came out at 27%. In the case of `COc1cc(Nc2nc(N)c(-c3nc(-c4cccc(NC(=O)c5c(-c6ccccc6)noc5C)c4)cs3)s2)cc(OC)c1OC`, the inhibition at 0.15 µM under setting [1] is 5%.

Regarding `CNC(=O)CNC(=O)Nc1nc(N)c(-c2nc(-c3cccc(NC(=O)c4cccc(OC)c4)c3)cs2)s1`, the inhibition at 0.01 µM under setting [8] came to 42%. Further, the inhibition at 0.05 µM under setting [9] was 23%. Turning to `CNC(=O)Nc1nc(N)c(-c2nc(-c3cccc(NC(=O)C4C[C@@H]5C[C@H]4CCC5O)c3)cs2)s1` (stereo partly shown), the inhibition at 0.001 µM under setting [2] is 14%. Besides, under setting [3], the inhibition at 0.01 µM was 21%. For `CNC(=O)Nc1nc(N)c(-c2nc(-c3cccc(NC(=O)C(C)ON=C(C)C)c3)cs2)s1` (stereo not shown) the same measures were 6% and -7%. Regarding `COc1cccc(C(=O)Nc2cc(-c3noc(-c4sc(NC(=O)N[C@H](CO)Cc5c[nH]cn5)nc4N)n3)c(F)cc2F)c1`, the inhibition at 0.05 µM under setting [4] was found to be 77%. In the case of `COc1cc(Nc2nc(N)c(-c3nc(-c4cccc(NC(=O)c5cc(C)cc(C)c5)c4)cs3)s2)cc(OC)c1OC`, under setting [1], the inhibition at 0.15 µM is 78%. For `CNC(=O)Nc1nc(N)c(-c2nc(-c3cccc(NC(=O)CCN4CCCCC4)c3)cs2)s1`, the inhibition at 0.001 µM under setting [2] turned out to be 1%. Also, under setting [3], the inhibition at 0.01 µM is -26%. `COc1cc(Nc2nc(N)c(-c3nc(-c4cccc(NC(=O)C5CCN(C(C)=O)CC5)c4)cs3)s2)cc(OC)c1OC`: the “% inhibition @ 150 nM” value under setting [1] was determined as 0%. `COc1cccc(C(=O)Nc2cccc(-c3csc(-c4sc(NC(=O)NCP(=O)(O)O)nc4N)n3)c2)c1`: the inhibition at 0.01 µM under setting [8] is -8%. Also, the inhibition at 0.05 µM under setting [9] was 38%.

On to `CNC(=O)Nc1nc(N)c(-c2nc(-c3cccc(NC(=O)C4CCCC(OC)C4)c3)cs2)s1` (stereo not shown), for which the inhibition at 0.001 µM under setting [2] turned out to be 6%. Besides, the inhibition at 0.01 µM under setting [3] came to 5%. For the compound `CCN1CCCC1CNC(=O)Nc1nc(N)c(-c2nc(-c3cc(NC(=O)c4cccc(OC)c4)c(F)cc3F)cs2)s1` (stereo not shown), the inhibition at 0.05 µM under setting [5] is 85%. For `COc1cc(Nc2nc(N)c(-c3nc(-c4cccc(NC(=O)c5cc(C(C)(C)C)cc(C(C)(C)C)c5)c4)cs3)s2)cc(OC)c1OC`, under setting [1], the inhibition at 0.15 µM is -12%.

Take `CNC(=O)Nc1nc(N)c(-c2nc(-c3cccc(NC(=O)CC4CC5CCC4C5)c3)cs2)s1` (stereo not shown): the inhibition at 0.001 µM under setting [2] was 0%. Moreover, under setting [3], the inhibition at 0.01 µM was determined as 93%. With `COc1cccc(C(=O)Nc2cc(-c3noc(-c4sc(NC(=O)NCc5ccc(N(C)C)cc5)nc4N)n3)c(F)cc2F)c1`, the inhibition at 0.05 µM under setting [4] came to 48%. In the case of `COc1cc(Nc2nc(N)c(-c3nc(-c4cccc(NC(=O)c5ccc6ccccc6c5)c4)cs3)s2)cc(OC)c1OC`, the inhibition at 0.15 µM under setting [1] stood at 53%.

Take `COc1cc(Nc2nc(N)c(-c3nc(-c4cccc(NC(=O)c5ccc(-c6ccccc6)cc5)c4)cs3)s2)cc(OC)c1OC`: under setting [1], the inhibition at 0.15 µM is -32%.

Consider `COc1cc(Nc2nc(N)c(-c3nc(-c4cccc(NC(=O)/C=C/c5c[nH]cn5)c4)cs3)s2)cc(OC)c1OC`, for which the inhibition at 0.15 µM under setting [1] was determined as 2%.

As for `COc1cccc(C(=O)Nc2cc(-c3csc(-c4sc(NC(=O)NCC5CCCO5)nc4N)n3)c(F)cc2F)c1` (stereo not shown), the inhibition at 0.05 µM under setting [5] was determined as 92%. On to `CC/C=C/CC(=O)Nc1cccc(-c2csc(-c3sc(Nc4cc(OC)c(OC)c(OC)c4)nc3N)n2)c1`, for which the inhibition at 0.15 µM under setting [1] was 19%. Consider `COc1cc(Nc2nc(N)c(-c3nc(-c4cccc(NC(=O)c5cc6ccccc6o5)c4)cs3)s2)cc(OC)c1OC` [drawing 844], for which the inhibition at 0.15 µM under setting [1] came out at 40%. As to `COc1cccc(C(=O)Nc2cccc(-c3csc(-c4sc(NC(=O)NCC(=O)O)nc4N)n3)c2)c1`, under setting [8], the inhibition at 0.01 µM is 42%. Moreover, under setting [9], the inhibition at 0.05 µM was found to be 52%. On to `COc1cc(Nc2nc(N)c(-c3nc(-c4cccc(NC(=O)c5ccc(C#N)cc5)c4)cs3)s2)cc(OC)c1OC`, for which the inhibition at 0.15 µM under setting [1] was 34%. Turning to `CCN1CC(NC(=O)Nc2nc(N)c(-c3nc(-c4cc(NC(=O)c5cccc(OC)c5)c(F)cc4F)no3)s2)CN1CC`, the inhibition at 0.05 µM under setting [4] is 92%. Turning to `COc1cc(Nc2nc(N)c(-c3nc(-c4cc(NC(=O)C(=O)CC(C)C)ccc4C)no3)s2)cc(OC)c1OC`, the inhibition at 0.001 µM under setting [6] was 7%. The inhibition at 0.01 µM under setting [7] worked out at 18%. As to `COc1cc(Nc2nc(N)c(-c3nc(-c4cccc(NC(=O)C(=O)c5c[nH]c6ccccc56)c4)cs3)s2)cc(OC)c1OC`, the “% inhibition @ 150 nM” value under setting [1] was 0%. Consider `CCNc1ccccc1C(=O)Nc1cccc(-c2csc(-c3sc(NC(=O)NC)nc3N)n2)c1`, for which the inhibition at 0.001 µM under setting [2] was -1%. The inhibition at 0.01 µM under setting [3] came out at 29%. With `COc1cccc(C(=O)Nc2cc(-c3noc(-c4sc(NC(=O)NCC5CCC=CO5)nc4N)n3)c(F)cc2F)c1` (stereo not shown), under setting [4], the inhibition at 0.05 µM is 93%. On to `COc1cc(Nc2nc(N)c(-c3nc(-c4cc(NC(=O)c5cc(C)cc(=O)o5)ccc4C)no3)s2)cc(OC)c1OC`, for which the inhibition at 0.001 µM under setting [6] was -2%. Besides, under setting [7], the inhibition at 0.01 µM amounted to 66%.
